# According to patent publication US20250179061A1 (SIRONAX LTD., priority 2022, published 2025):
# pIC50: −log10 of the molar value.
# Tested on: HT-29 cells
# Assay: HT-29 necroptosis cell viability assay (TNF-α/SMAC mimetic/zVAD-FMK, CellTiter-Glo)
# Format: cell-based
# Details: HT-29 cells stimulated with TNF-α (10 ng/ml), SMAC mimetic (6 μM) and zVAD-FMK (10 μM); 20 hours; CellTiter-Glo ATP luminescence; geometric mean IC50 from 10 points; read-out: Activity
# In short: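 Necroptosis was triggered by TNF-α (10 ng/ml), SMAC mimetic (6 μM) and zVAD-FMK (10 μM) in serum-free medium during 20 h compound exposure (10 concentrations, threefold steps) of HT-29 cells. IC50 from duplicate dose-responses uses CellTiter-Glo ATP luminescence as viability read-out.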
row,Structure (SMILES),pIC50
1,"Cc1nc(C(N)=O)sc1Oc1ccc(-n2nc3n(c2=O)C(c2ccccc2)CC3F)cc1F (centres unmarked) [Example 80, 5-(2-fluoro-4-(7-fluoro-3-oxo-5-phenyl-3,5,6,7-tetrahydro-2H-pyrrolo[2,1-c][1,2,4]triazol-2-yl)phenoxy)-4-methylthiazole-2-carboxamide]",> 7.00

# Same assay, conditions: Homo sapiens, HT-29, 20 h, read-out: Activity
row,Structure (SMILES),pIC50
1,"COC(=O)c1ncc(Oc2ccc(-n3ncn(Cc4c(F)cccc4F)c3=O)cc2F)s1 [Example 105, methyl 5-(4-(4-(2,6-difluorobenzyl)-5-oxo-4,5-dihydro-1H-1,2,4-triazol-1-yl)-2-fluorophenoxy)thiazole-2-carboxylate]",6.00 to 7.00

# Same assay, conditions: Homo sapiens; HT-29 cells stimulated with TNF-α (10 ng/ml), SMAC mimetic (6 μM) and zVAD-FMK (10 μM); 20 hours; CellTiter-Glo ATP luminescence; geometric mean IC50 from 10 points; read-out: Activity
row,Structure (SMILES),pIC50
1,"Cc1nc(N2CC3(CCOCC3)C2)sc1Oc1ccc(-n2ncn(Cc3c(F)cccc3F)c2=O)cc1 [Example 75, 4-(2,6-difluorobenzyl)-2-(4-((4-methyl-2-(7-oxa-2-azaspiro[3.5]nonan-2-yl)thiazol-5-yl)oxy)phenyl)-2,4-dihydro-3H-1,2,4-triazol-3-one]",> 7.00
2,"Cc1nc(N2C[C@@H](O)CC2=O)sc1Oc1ccc(-n2ncn(Cc3c(F)cccc3F)c2=O)cc1F [Example 76, (S)-4-(2,6-difluorobenzyl)-2-(3-fluoro-4-((2-(4-hydroxy-2-oxopyrrolidin-1-yl)-4-methylthiazol-5-yl)oxy)phenyl)-2,4-dihydro-3H-1,2,4-triazol-3-one]",> 7.00
3,"N#Cc1cnc(Oc2ccc(-n3ncn(Cc4c(F)cccc4F)c3=O)cc2)s1 [Example 77, 2-(4-(4-(2,6-difluorobenzyl)-5-oxo-4,5-dihydro-1H-1,2,4-triazol-1-yl)phenoxy)thiazole-5-carbonitrile]",6.00 to 7.00
4,"Cc1nc(Oc2ccc(-n3ncn(Cc4c(F)cccc4F)c3=O)cc2)sc1C [Example 78, 4-(2,6-difluorobenzyl)-2-(4-((4,5-dimethylthiazol-2-yl)oxy)phenyl)-2,4-dihydro-3H-1,2,4-triazol-3-one]",6.00 to 7.00
5,"N#Cc1ncc(Oc2ccc(-n3ncn(Cc4c(F)cccc4F)c3=O)cc2)s1 [Example 79, 5-(4-(4-(2,6-difluorobenzyl)-5-oxo-4,5-dihydro-1H-1,2,4-triazol-1-yl)phenoxy)thiazole-2-carbonitrile]",> 7.00
6,"Cc1nc(C(N)=O)sc1Oc1ccc(-n2nc3n(c2=O)C(c2ccccc2)CC3F)cc1F (centres unmarked) [Example 81, 5-(2-fluoro-4-(7-fluoro-3-oxo-5-phenyl-3,5,6,7-tetrahydro-2H-pyrrolo[2,1-c][1,2,4]triazol-2-yl)phenoxy)-4-methylthiazole-2-carboxamide]",> 7.00
7,"NC(=O)c1cnc(Oc2ccc(-n3ncn(Cc4c(F)cccc4F)c3=O)cc2)s1 [Example 82, 2-(4-(4-(2,6-difluorobenzyl)-5-oxo-4,5-dihydro-1H-1,2,4-triazol-1-yl)phenoxy)thiazole-5-carboxamide]",6.00 to 7.00
8,"O=c1n(Cc2c(F)cccc2F)cnn1-c1ccc(Oc2nc3c(s2)CCCC3)cc1 [Example 83, 4-(2,6-difluorobenzyl)-2-(4-((4,5,6,7-tetrahydrobenzo[d]thiazol-2-yl)oxy)phenyl)-2,4-dihydro-3H-1,2,4-triazol-3-one]",6.00 to 7.00
9,"CCOC1CN(c2ncc(Oc3ccc(-n4ncn(Cc5c(F)cccc5F)c4=O)cc3)s2)C1 [Example 84, 4-(2,6-difluorobenzyl)-2-(4-((2-(3-ethoxyazetidin-1-yl)thiazol-5-yl)oxy)phenyl)-2,4-dihydro-3H-1,2,4-triazol-3-one]",> 7.00
10,"CCOC1CN(c2cc(Oc3ccc(-n4ncn(Cc5c(F)cccc5F)c4=O)cc3)c(C)s2)C1 [Example 85, 4-(2,6-difluorobenzyl)-2-(4-((5-(3-ethoxyazetidin-1-yl)-2-methylthiophen-3-yl)oxy)phenyl)-2,4-dihydro-3H-1,2,4-triazol-3-one]",< 5.00
11,"Cc1nc(C#N)sc1Oc1ccc(-n2ncn(Cc3c(F)cccc3F)c2=O)cc1Cl [Example 86, 5-(2-chloro-4-(4-(2,6-difluorobenzyl)-5-oxo-4,5-dihydro-1H-1,2,4-triazol-1-yl)phenoxy)-4-methylthiazole-2-carbonitrile]",> 7.00
12,"Cc1nc(C#N)sc1Oc1ccc(-n2ncn(Cc3c(F)cccc3F)c2=O)cc1 [Example 87, 5-(4-(4-(2,6-difluorobenzyl)-5-oxo-4,5-dihydro-1H-1,2,4-triazol-1-yl)phenoxy)-4-methylthiazole-2-carbonitrile]",> 7.00
13,"Cc1nc(C(N)=O)sc1Oc1ccc(-n2ncn(Cc3c(F)cccc3F)c2=O)cc1Cl [Example 88, 5-(2-chloro-4-(4-(2,6-difluorobenzyl)-5-oxo-4,5-dihydro-1H-1,2,4-triazol-1-yl)phenoxy)-4-methylthiazole-2-carboxamide]",> 7.00
14,"CC(=O)Nc1nc(C)c(Oc2ccc(-n3ncn(Cc4c(F)cccc4F)c3=O)cc2F)s1 [Example 89, N-(5-(4-(4-(2,6-difluorobenzyl)-5-oxo-4,5-dihydro-1H-1,2,4-triazol-1-yl)-2-fluorophenoxy)-4-methylthiazol-2-yl)acetamide]",> 7.00
15,"Nc1ncc(Oc2ccc(-n3ncn(Cc4c(F)cccc4F)c3=O)cc2)s1 [Example 90, 2-(4-((2-aminothiazol-5-yl)oxy)phenyl)-4-(2,6-difluorobenzyl)-2,4-dihydro-3H-1,2,4-triazol-3-one]",6.00 to 7.00
16,"Cc1nc(N)sc1Oc1ccc(-n2ncn(Cc3c(F)cccc3F)c2=O)cc1 [Example 91, 2-(4-((2-amino-4-methylthiazol-5-yl)oxy)phenyl)-4-(2,6-difluorobenzyl)-2,4-dihydro-3H-1,2,4-triazol-3-one]",> 7.00
17,"COC(=O)c1nc(Oc2ccc(-n3ncn(Cc4c(F)cccc4F)c3=O)cc2)sc1C [Example 92, methyl 2-(4-(4-(2,6-difluorobenzyl)-5-oxo-4,5-dihydro-1H-1,2,4-triazol-1-yl)phenoxy)-5-methylthiazole-4-carboxylate]",6.00 to 7.00
18,"CCOC(=O)c1scnc1Oc1ccc(-n2ncn(Cc3c(F)cccc3F)c2=O)cc1F [Example 93, ethyl 4-(4-(4-(2,6-difluorobenzyl)-5-oxo-4,5-dihydro-1H-1,2,4-triazol-1-yl)-2-fluorophenoxy)thiazole-5-carboxylate]",6.00 to 7.00
19,"Cn1ncnc1Oc1ccc(-n2ncn(Cc3c(F)cccc3F)c2=O)cc1 [Example 94, 4-(2,6-difluorobenzyl)-2-(4-((1-methyl-1H-1,2,4-triazol-5-yl)oxy)phenyl)-2,4-dihydro-3H-1,2,4-triazol-3-one]",5.00 to 6.00
20,"Cn1ncc([N+](=O)[O-])c1Oc1ccc(-n2ncn(Cc3c(F)cccc3F)c2=O)cc1 [Example 95, 4-(2,6-difluorobenzyl)-2-(4-((1-methyl-4-nitro-1H-pyrazol-5-yl)oxy)phenyl)-2,4-dihydro-3H-1,2,4-triazol-3-one]",6.00 to 7.00
21,"O=c1n(Cc2c(F)cccc2F)cnn1-c1ccc(Oc2nc(CO)cs2)cc1 [Example 96, 4-(2,6-difluorobenzyl)-2-(4-((4-(hydroxymethyl)thiazol-2-yl)oxy)phenyl)-2,4-dihydro-3H-1,2,4-triazol-3-one]",6.00 to 7.00
22,"Cc1nc(C)c(Oc2ccc(-n3ncn(Cc4c(F)cccc4F)c3=O)cc2)s1 [Example 97, 4-(2,6-difluorobenzyl)-2-(4-((2,4-dimethylthiazol-5-yl)oxy)phenyl)-2,4-dihydro-3H-1,2,4-triazol-3-one]",> 7.00
23,"Cc1csc(COc2ccc(-n3ncn(Cc4c(F)cccc4F)c3=O)cc2)n1 [Example 98, 4-(2,6-difluorobenzyl)-2-(4-((4-methylthiazol-2-yl)methoxy)phenyl)-2,4-dihydro-3H-1,2,4-triazol-3-one]",6.00 to 7.00
24,"Cc1ncc(Oc2ccc(-n3ncn(Cc4c(F)cccc4F)c3=O)cc2)s1 [Example 99, 4-(2,6-difluorobenzyl)-2-(4-((2-methylthiazol-5-yl)oxy)phenyl)-2,4-dihydro-3H-1,2,4-triazol-3-one]",> 7.00
25,"Cc1nc(C(N)=O)c(Oc2ccc(-n3ncn(Cc4c(F)cccc4F)c3=O)cc2F)s1 [Example 100, 5-(4-(4-(2,6-difluorobenzyl)-5-oxo-4,5-dihydro-1H-1,2,4-triazol-1-yl)-2-fluorophenoxy)-2-methylthiazole-4-carboxamide]",6.00 to 7.00
26,"NC(=O)c1scnc1Oc1ccc(-n2ncn(Cc3c(F)cccc3F)c2=O)cc1F [Example 101, 4-(4-(4-(2,6-difluorobenzyl)-5-oxo-4,5-dihydro-1H-1,2,4-triazol-1-yl)-2-fluorophenoxy)thiazole-5-carboxamide]",6.00 to 7.00
27,"Cc1nc(C(N)=O)cn1Cc1ccc(-n2nc3n(c2=O)C(c2ccccc2)CC3)cc1F (centres unmarked) [Example 102, 1-(2-fluoro-4-(3-oxo-5-phenyl-6,7-dihydro-3H-pyrrolo[2,1-c][1,2,4]triazol-2(5H)-yl)benzyl)-2-methyl-1H-imidazole-4-carboxamide]",> 7.00
28,"Cc1nc(C(N)=O)cn1Cc1ccc(-n2ncn(Cc3c(F)cccc3F)c2=O)cc1F [Example 103, 1-(4-(4-(2,6-difluorobenzyl)-5-oxo-4,5-dihydro-1H-1,2,4-triazol-1-yl)-2-fluorobenzyl)-2-methyl-1H-imidazole-4-carboxamide]",6.00 to 7.00
29,"Cc1ncc(C(N)=O)n1Cc1ccc(-n2ncn(Cc3c(F)cccc3F)c2=O)cc1F [Example 104, 1-(4-(4-(2,6-difluorobenzyl)-5-oxo-4,5-dihydro-1H-1,2,4-triazol-1-yl)-2-fluorobenzyl)-2-methyl-1H-imidazole-5-carboxamide]",> 7.00
30,"COC(=O)c1nc(C)c(Oc2ccc(-n3ncn(Cc4c(F)cccc4C#N)c3=O)cc2F)s1 [Example 106, methyl 5-(4-(4-(2-cyano-6-fluorobenzyl)-5-oxo-4,5-dihydro-1H-1,2,4-triazol-1-yl)-2-fluorophenoxy)-4-methylthiazole-2-carboxylate]",> 7.00
